# PubChem BioAssay AID1896 (NMMLSC, 2009)
# Activity calls are given as the source filed them. No rule for the calls is given here.
# Target: Mitogen-activated protein kinase kinase kinase 3 (Homo sapiens) (UniProt Q99759)
# Assay: MEKK3 PB1-MEK5 interaction blockers – biochemical, bead multiplex flow cytometry, wildtype, dose response (AID 1896)
# Conditions: bead-based multiplex flow cytometry, MEK5-MEKK3 PB1 binding; for Ki: measured here: Ki from EC50
# Mitogen-activated protein kinase kinase kinase 3 (Homo sapiens), sequence (Q99759 whole entry, looked up): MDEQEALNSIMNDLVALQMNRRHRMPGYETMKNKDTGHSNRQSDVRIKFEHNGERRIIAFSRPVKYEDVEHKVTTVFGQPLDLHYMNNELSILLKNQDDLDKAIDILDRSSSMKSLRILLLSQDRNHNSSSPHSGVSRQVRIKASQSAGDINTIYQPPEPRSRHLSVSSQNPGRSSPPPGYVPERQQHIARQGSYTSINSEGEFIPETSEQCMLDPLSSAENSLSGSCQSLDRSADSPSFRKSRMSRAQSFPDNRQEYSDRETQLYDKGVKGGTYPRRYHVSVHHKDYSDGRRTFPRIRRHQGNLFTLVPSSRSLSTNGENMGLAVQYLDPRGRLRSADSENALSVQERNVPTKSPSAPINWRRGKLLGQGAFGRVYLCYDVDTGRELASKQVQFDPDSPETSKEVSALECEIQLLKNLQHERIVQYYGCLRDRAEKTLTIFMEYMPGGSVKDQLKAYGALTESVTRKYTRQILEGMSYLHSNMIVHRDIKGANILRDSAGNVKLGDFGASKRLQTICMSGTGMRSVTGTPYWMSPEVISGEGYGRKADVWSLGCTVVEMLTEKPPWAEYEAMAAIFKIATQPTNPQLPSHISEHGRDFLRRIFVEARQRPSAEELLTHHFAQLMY
EC50,Ki [µM],SMILES
> 30 µM (inactive),–,CCN(CC)CCNC(=O)c1ccc(NC(=O)c2cn(-c3ccccc3)nc2-c2cccs2)cc1
> 30 µM (inactive),–,Cc1sc(NC(=O)c2ccccc2)c(C(c2ccccn2)N2CCN(CCO)CC2)c1C (centres undefined)
> 30 µM (inactive),–,CCN1CCN(CCNC(=O)c2ccc(/C=C3/Sc4ccccc4N(Cc4cccc(C)c4)C3=O)cc2)CC1
8.75 µM,7.49,COc1ccc2nc(C)cc(N/N=C/c3ccc(F)cc3)c2c1
> 30 µM (inactive),–,CC[C@@H](C)[C@H](CNC)NC[C@@H](Cc1cccc2ccccc12)NCCc1cccc(C(F)(F)F)c1
> 30 µM (inactive),–,CCN(CC)CCOC(=O)c1ccc(N/C=C(/C#N)c2nc(-c3ccc(OC)cc3)cs2)cc1
11.9 µM,10.2,O=C(Nc1ccc(C2=NCCN2)cc1)c1ccc(C(=O)Nc2ccc(C3=NCCN3)cc2)c([N+](=O)[O-])c1
> 30 µM (inactive),–,CCN(CC)CCOC(=O)c1ccc(N/C=C(/C#N)c2nc(-c3cccc(OC)c3)cs2)cc1
> 30 µM (inactive),–,CCN1CCN(Cc2ccc(NC(=O)c3cc(NC(=O)c4cnn(-c5ccccc5)c4N)cc(OC)c3)cc2C(F)(F)F)CC1
> 30 µM (inactive),–,CCN1CCN(Cc2ccc(NC(=O)c3ccc(C)c(NC(=O)C(=O)c4c[nH]c5ccccc45)c3)cc2C(F)(F)F)CC1
> 30 µM (inactive),–,CCCCCc1cc(=O)oc2c(C(CCN3CCCCC3)c3ccc(OC)cc3)c(OC)cc(OC)c12 (centres undefined)
> 30 µM (inactive),–,CCN1CCN(CCNC(=O)c2ccc(/C=C3/Sc4ccccc4N(Cc4cccc(Cl)c4)C3=O)cc2)CC1
1.13 µM,0.97,COc1ccc(-n2nc3c(N)n[nH]c3cc2=O)cc1
> 30 µM (inactive),–,CCOC(=O)C1=C(c2ccccc2)NC(N)=NC1c1ccc(OCc2ccc(Cl)cc2)c(OC)c1 (centres undefined)
> 30 µM (inactive),–,COc1ccccc1N(CN1C(=O)c2ccccc2C1=O)C(=O)c1cccc(C)c1
25.2 µM,21.5,Cc1nc(Nc2cnc(/C=C/c3cc(C(=O)Nc4cccc(C(F)(F)F)c4)ccc3C)cn2)cc(N2CCNCC2)n1
> 30 µM (inactive),–,CCc1ccc(-c2nn(-c3ccccc3)cc2CSC(=N)N)cc1
> 30 µM (inactive),–,COc1ccc(C(CCNCc2ccc(OC(C)C)cc2)c2ccccc2OC)cc1 (centres undefined)
> 30 µM (inactive),–,CCN1CCN(Cc2ccc(NC(=O)c3cc(NC(=O)c4cncc(-c5cccs5)c4)cc(OC)c3)cc2C(F)(F)F)CC1
> 30 µM (inactive),–,COc1ccc(-c2[nH]ncc2CN2CCCCCCC2)c(OC)c1
> 30 µM (inactive),–,CN(C)c1ccc(NC(=O)CN2CCC(O)(c3ccccc3)CC2)cc1
> 30 µM (inactive),–,CCOc1cccc2sc(N(CCCN(C)C)C(=O)c3ccc(S(=O)(=O)N4CCc5ccccc5C4)cc3)nc12
> 30 µM (inactive),–,COc1ccccc1N1CCN(S(=O)(=O)c2ccc(Cl)s2)CC1
> 30 µM (inactive),–,Cc1ccc(-c2c[n+](CC(=O)Nc3nc(-c4ccc(F)cc4)cs3)c3n2CCC3)cc1
> 30 µM (inactive),–,CSc1cccc(NC(=S)N(CCCN2CCCC2)Cc2cccn2Cc2ccc(Cl)cc2)c1

# Continued, molecule first:
SMILES,EC50,Ki [µM]
N#CC(C#N)=c1ccc2c(c1)N1C(c3ccccc3)=CC(c3ccccc3)C3CCCCC31N=2 (centres undefined),1.63 µM,1.4
CN(C)CCCNc1cc(C(C)(C)C)nc2c(-c3ccc(Cl)cc3)cnn12,> 30 µM (inactive),–
CCCCCCCCCCOC(=O)Cn1c(COc2ccccc2)[n+](C)c2ccccc21,> 30 µM (inactive),–
CCCCCCCCCCOC(=O)Cn1c(COc2ccccc2OC)[n+](C)c2ccccc21,> 30 µM (inactive),–
C=CC#CC[N+]1(CC#Cc2ccccc2)CCOCC1,> 30 µM (inactive),–
O=C1Nc2ccc(Br)cc2/C1=N/N=C/C1=C(N2CCOCC2)C(=C\c2ccccc2)/CC1,1.76 µM,1.5
CCCN(CCC)CCNC(=O)c1cc2c(-c3ccc(Cl)cc3)nn(C)c2s1,> 30 µM (inactive),–
Cc1ccc(-c2csc(NC(=O)C[n+]3cc(-c4ccc(C)cc4)n4c3CCC4)n2)cc1,> 30 µM (inactive),–
O=C(CCCC(=O)N(CC(=O)NC1CCCC1)C1CCCC1)Nc1ccccn1,> 30 µM (inactive),–
Nc1cc2nc[nH]c2cc1N,7.87 µM,6.73
C#CCOCCOCCOCCNc1nc(N2CCN(C(=O)[C@H](Cc3ccc(O)cc3)n3cc([C@@H](N)CC(C)C)nn3)CC2)nc(N2CCN(C(=O)[C@H](Cc3cc4ccccc4[nH]3)n3cc([C@@H](N)CC(C)C)nn3)CC2)n1,> 30 µM (inactive),–
CCCCCCCCCCOC(=O)Cn1c(COc2ccccc2C)[n+](C)c2ccccc21,> 30 µM (inactive),–
COc1ccc2nc(C)cc(N/N=C/c3cccc(OC)c3O)c2c1,> 30 µM (inactive),–
Nc1ccc(Nc2ccccc2N)cc1,21.1 µM,18.1
C#CCOCCOCCOCCNc1nc(N2CCN(C(=O)[C@H]([C@@H](C)CC)n3cc([C@@H](N)CO)nn3)CC2)nc(N2CCN(C(=O)[C@H](Cc3cc4ccccc4[nH]3)n3cc([C@@H](N)Cc4ccc(O)cc4)nn3)CC2)n1,8.28 µM,7.08
CS(=O)(=O)N1N=C(c2ccccc2)CC1c1ccc2c(c1)OCO2 (centres undefined),> 30 µM (inactive),–
O=C(OCC1O[C@@H](OC(=O)c2cc(O)c(O)c(O)c2)[C@@H](OC(=O)c2cc(O)c(O)c(O)c2)[C@@H](OC(=O)c2cc(O)c(O)c(O)c2)[C@@H]1OC(=O)c1cc(O)c(O)c(O)c1)c1cc(O)c(O)c(O)c1 (some centres undefined),> 30 µM (inactive),–
CCCCCCCCCCCCCCCC[n+]1ccc(/C=N/O)cc1,> 30 µM (inactive),–
COC(=O)c1c(C)oc(C)c1S(=O)(=O)N(Cc1ccccc1)C(C)C,> 30 µM (inactive),–

SMILES,EC50,Ki [µM]
Cc1cc2cc(CNC(=O)NC3CCCCC3)ccc2[nH]1,3.98 µM,3.41
CN(C)CCNc1ncnc2c1sc1nc(-c3ccccc3)c3c(c12)CCCC3,> 30 µM (inactive),–
Cc1ccnc(NC(=O)C2(c3cccs3)CCOCC2)c1,> 30 µM (inactive),–
Cc1ccc(-n2cc(CNCCCn3ccnc3C)c(-c3ccc(F)cc3)n2)cc1,> 30 µM (inactive),–
CNC(=O)C(=O)Nc1c(C)cc(C)cc1C,> 30 µM (inactive),–
C#CCOCCOCCOCCNc1nc(N2CCN(C(=O)[C@H](Cc3cc4ccccc4[nH]3)n3cc([C@@H](N)C(C)CC)nn3)CC2)nc(N2CCN(C(=O)[C@H](CCCCN)n3cc([C@@H](N)CC(C)C)nn3)CC2)n1 (some centres undefined),> 30 µM (inactive),–
CCNc1ccc2noc3c2c1C(=O)c1ccccc1-3,4.55 µM,3.89
O=C(Nc1ccc(Cl)cn1)c1ccc2c(Cl)c3c(nc2c1)CCC3,> 30 µM (inactive),–
O=[N+]([O-])c1ccc(/C=C/C2=NN(c3ccccc3)C(c3ccco3)C2)o1 (centres undefined),> 30 µM (inactive),–
Cc1ccccc1OCC(O)CNC1CCC(NCC(O)COc2ccccc2C)CC1 (centres undefined),> 30 µM (inactive),–
CCCCN(CC)CCNC(=O)c1cc2c(-c3ccc(Cl)cc3)nn(C)c2s1,> 30 µM (inactive),–
CCN1/C(=C/c2ccc3cc(C)ccc3[n+]2C)Sc2ccc3sccc3c21,> 30 µM (inactive),–
C=CCN1C(=O)/C(=C/c2ccc(-c3ccc(F)cc3)o2)SC1=S,> 30 µM (inactive),–
CN1C(=CC=C2C=C(I)C(=O)C(I)=C2)C(C)(C)c2ccccc21,> 30 µM (inactive),–
CN1C(=O)/C(=C\c2ccc(-c3ccccc3)o2)SC1=S,10.2 µM,8.75
CCN1C(c2ccccc2)=C(c2ccccc2)S/C1=C/C=C1\SC(=S)N(C)C1=O,3.4 µM,2.91
CCCOc1ccc2c(c1)C(=NN=C(N)N)c1cc(OCCC)ccc1-2,> 30 µM (inactive),–
NC(N)=N/N=C/c1ccc(OCc2ccccc2Cl)cc1,> 30 µM (inactive),–
CCC(=C/c1sc2ccc3ccccc3c2[n+]1C)/C=C1\Sc2ccc3ccccc3c2N1C,0.27 µM,0.23

SMILES,EC50,Ki [µM]
COc1ccc2[nH]c3c(C)c4ccncc4c(C)c3c2c1,> 30 µM (inactive),–
C#CCOCCOCCOCCNc1nc(N2CCN(C(=O)[C@H]([C@@H](C)CC)n3cc([C@@H](N)Cc4ccc(O)cc4)nn3)CC2)nc(N2CCN(C(=O)[C@H](CCCCN)n3cc([C@@H](N)CC(C)C)nn3)CC2)n1,> 30 µM (inactive),–
COc1ccc2nc3cc(Cl)ccc3c(Nc3cc(C(C)C)c(O)cc3C)c2c1,> 30 µM (inactive),–
Nc1ccc(N)c(C(=O)O)c1,3.06 µM,2.62
CCCCCCCCCCOC(=O)Cn1c(COc2ccc(C)cc2)[n+](C)c2ccccc21,> 30 µM (inactive),–
c1ccc(CNc2nc(NCc3ccccc3)c3ccccc3n2)cc1,> 30 µM (inactive),–
CN(C)c1ccc(/C=C/C=C2/SC(=S)N(c3ccccc3)C2=O)cc1,1.21 µM,1.03
C#CCOCCOCCOCCNc1nc(N2CCN(C(=O)[C@H]([C@@H](C)CC)n3cc([C@@H](N)CO)nn3)CC2)nc(N2CCN(C(=O)[C@H](Cc3cc4ccccc4[nH]3)n3cc([C@@H](N)C(C)CC)nn3)CC2)n1 (some centres undefined),> 30 µM (inactive),–
CNc1nc(-c2c[nH]c3ccccc23)cs1,8.73 µM,7.47
COc1ccc(-c2cc(C#N)nc(N3CCNCC3)n2)cc1,> 30 µM (inactive),–
Cc1cc2ccccc2n1CCNC(=O)c1cccs1,> 30 µM (inactive),–
COc1ccc(/C=N/Nc2cc(C)nc3ccc(Br)cc23)cc1,> 30 µM (inactive),–
O=C1c2ccccc2-c2onc3ccc(NCCCn4ccnc4)c1c23,> 30 µM (inactive),–
CCCCCCCCCCOC(=O)Cn1c(COc2cccc(C)c2)[n+](C)c2ccccc21,> 30 µM (inactive),–
CCN1/C(=C/c2ccc3cc(C)ccc3[n+]2CC)Sc2cc(C)c(C)cc21,5.79 µM,4.96
CCCCCc1cc(=O)oc2c(C(CCN3CCCCC3)c3ccc4c(c3)OCO4)c(OC)cc(OC)c12 (centres undefined),> 30 µM (inactive),–
C#CCOCCOCCOCCNc1nc(N2CCN(C(=O)[C@H](Cc3ccc(O)cc3)n3cc([C@@H](N)CC(C)C)nn3)CC2)nc(N2CCN(C(=O)[C@H](Cc3ccc(O)cc3)n3cc([C@@H](N)CC(C)C)nn3)CC2)n1,> 30 µM (inactive),–
CCOC(=O)N1CCN(c2c(N3CCN(c4ccccc4F)CC3)c(=O)c2=O)CC1,> 30 µM (inactive),–
